Measurements reported in US20200325239A1, “Modulation of Aminopeptidase N/CD13 and Rheumatoid Arthritis” (THE REGENTS OF THE UNIVERSITY OF MICHIGAN, priority 2016, published 2020).

Assays:
Assay type in all cases: cell-based, human
[1] = system: RA FLS; assay: ELISA for the secretion of CD13 from RA FLS incubated with TIMPs; conditions: 0.6 μg/ml, 48 hours, FLS from 3 RA patients
Procedure: To determine the role of tissue inhibitors of metalloproteinases (TIMPs) in the secretion of CD13, RA FLS (10 aliquots of 10^5, or 10^6, cells) were plated in 6-well plates in RPMI with 10% FBS. When RA FLS became 85% confluent, media was switched to RPMI containing 0.1% FBS. RA FLS were incubated with TIMP-1, TIMP-2 or both for 48 hours. ELISA was performed to determine the levels of soluble CD13 in the conditioned media. Conditioned media (100 μl/well) was added to 96-well plates (Thermo Scientific, USA) for 2 hours at room temperature. After blocking, anti-CD13 antibody, WM15, (10 μg/ml, BioLegend) was added for 2 hours at 37° C. Anti-mouse IgG HRP-linked antibody (1:1000) was added for 1 hour. After adding the TMB substrate solution (BD Biosciences) and stop solution (2N H2SO4), the optical density (OD) was measured at 450 nm by a microplate reader (BIO-TEK, USA). We used FLS from three different RA patients. Both inhibitors were used at 0.6 μg/ml. These concentrations are recommended by the manufacture to inhibit matrix metalloproteinases (MMPs).

[2] = system: RA FLS; assay: CD13 shedding from FLS cultures with protease inhibitors (CD13 ELISA of supernatant and cell lysate); conditions: 48 hours
Procedure: Fibroblast-like synoviocytes (FLS) were cultured from human synovial tissue obtained at arthroplasty or synovectomy from RA joints by digestion with 1% collagenase and separation through a 7004 cell strainer (16). […] FLS were maintained in Connaught Medical Research Laboratory (CARL) medium (20% fetal bovine serum (FBS), 2 mM L-glutamine, and 1% penicillin/streptomycin), and were used between passages 4 and 10. To avoid the confounding effect of serum CD13, cultures were moved to serum-free Dulbecco's Modified Eagle's medium/F-12 with Peprogrow serum replacement (Peprotech, Rocky Hill, N.J.) before harvesting. Some cultures were treated with protease inhibitors for 48 hours in serum-free medium: pepstatin A (Sigma-Aldrich, St. Louis, Mo.), aprotinin (Sigma-Aldrich, St. Louis, Mo.), leupeptin (Sigma-Aldrich, St. Louis, Mo.), GM6001 InSolution (EMD Millipore, Darmstadt, Germany), or E-64 (Thermo Scientific, Waltham, Mass.).
Cells were lysed in cell lysis buffer (10% NP-40, 10% PMSF, 1% Iodoacetamide, and 0.1% E-64 in TSA) for one hour on ice and spun to remove debris. FLS culture supernatants were concentrated by centrifugation through an Amicon Ultracel 30K filter (EMD Millipore, Darmstadt, Germany).
High-binding ELISA plates were coated with the anti-CD13 monoclonal antibody WM15 (Biolegend, San Diego, Calif.) in 0.1M carbonate buffer pH 9.5 overnight, and then blocked with 1× Animal Free Block (Vector Laboratories, Burlingame, Calif.) overnight. Samples were then applied to the plates either whole or diluted in block with 10 mM EDTA. A standard curve was prepared using recombinant human CD13 (R&D Systems, Minneapolis, Minn.) in block with 10 mM EDTA. 1D7 (i.e., 591.1D7.34, University of Michigan Hybridoma Core), an anti-CD13 monoclonal antibody that was recently described (10), was biotinylated (Biotin-XX Microscale Protein Labeling Kit, Life Technologies, Carlsbad, Calif.) and applied overnight (19). Streptavidin-HRP (Biolegend, San Diego, Calif.) was then added. Between steps, plates were washed with PBS plus 0.05% Tween. The plates were visualized with TMB substrate (BD Biosciences, San Jose, Calif.), stopped with 2M H2SO4, and analyzed on a colorimetric plate reader.
To test this mechanism, various protease inhibitors were added to FLS cultures, including: pepstatin A (aspartic), aprotinin (serine), leupeptin (serine/cysteine), GM6001 (metalloproteinase), and E-64 (cysteine). […] All inhibitors were used at established working concentrations.

[3] = system: FLS; assay: CD13 release and cellular CD13 after siRNA knockdown with or without GM6001 (CD13 ELISA); conditions: 25 μM GM6001, 48 hours
Procedure: FLS were grown to confluence, then transfected with siRNA using an Amaxa nucleofector kit. Cells were grown to 75% confluence, then switched to serum-free growth media (Peprogrow) supplemented with 1 ng/ml IL-1 and 10 ng/ml TNFα for 48 hours with or without 25 μM GM6001.
High-binding ELISA plates were coated with the anti-CD13 monoclonal antibody WM15 (Biolegend, San Diego, Calif.) in 0.1M carbonate buffer pH 9.5 overnight, and then blocked with 1× Animal Free Block (Vector Laboratories, Burlingame, Calif.) overnight. Samples were then applied to the plates either whole or diluted in block with 10 mM EDTA. A standard curve was prepared using recombinant human CD13 (R&D Systems, Minneapolis, Minn.) in block with 10 mM EDTA. […] The plates were visualized with TMB substrate (BD Biosciences, San Jose, Calif.), stopped with 2M H2SO4, and analyzed on a colorimetric plate reader.
FLS were transfected by electroporation using an Amaxa Nucleofector and the nucleofector kit for dermal fibroblasts (NHDF, Lonza, Basel, Switzerland). […] Transfection of GFP control plasmid was measured by fluorescent microscopy (EVOSfl, AMG, Mill Creek, Wash.) and flow cytometry (BD Biosciences FACSCalibur, San Jose, Calif.). Knockdown efficiency was measured by qRT-PCR of MMP14 mRNA at the time of harvest for CD13 measurements. […]

[4] = system: CD13 mRNA; assay: Regulation of CD13 mRNA in RA FLS by cytokines (qRT-PCR); conditions: time course 0 to 72 hours; for CD13 mRNA in RA FLS, ratio to untreated FLS (in words): IFNγ 1000 U/ml, TNFα 10 ng/ml, IL-17 10 ng/ml
Procedure: FIG. 4. […] FLS were stimulated over a time course of 0-72 hours with IFNγ (1000 U/ml), TNFα (10 ng/ml), or IL-17 (10 ng/ml). Cells were harvested and processed for either mRNA (A), surface expression (B), total cell lysate CD13 (C), or total CD13 in supernatant (D). mRNA was measured by qRT-PCR. CD13 was measured on the surface with anti-CD13 (1D7) and flow cytometry. Cell lysate and supernatant CD13 concentrations were measured by CD13 ELISA. Gating was done to isolate the major cell population and exclude debris and dead cells. Data is expressed as a ratio to unstimulated FLS at the same time point in either ΔΔCt normalized to GAPD (mRNA), mean fluorescent intensity corrected for background florescence with MsIg staining (surface), or CD13 concentration in lysate or supernatant. A n=3 B-D n=1 *p≤0.05.
All procedures involving specimens obtained from human subjects were performed under a protocol approved by the University of Michigan Institutional Review Board. Fibroblast-like synoviocytes (FLS) were cultured from human synovial tissue obtained at arthroplasty or synovectomy from RA joints by digestion with 1% collagenase and separation through a […] (16). FLS were uniformly positive for the FLS marker Cadherin-11. The diagnosis of RA required at least four of the seven 1987 American College of Rheumatology criteria (17). FLS were maintained in Connaught Medical Research Laboratory ([…]) medium (20% fetal bovine serum (FBS), 2 mM L-glutamine, and 1% penicillin/streptomycin), and were used between passages 4 and 10. To avoid the confounding effect of serum CD13, cultures were moved to serum-free Dulbecco's Modified Eagle's medium/F-12 with Peprogrow serum replacement (Peprotech, Rocky Hill, N.J.) before harvesting. Some cultures were treated with protease inhibitors for 48 hours in serum-free medium: pepstatin A (Sigma-Aldrich, St. Louis, Mo.), aprotinin (Sigma-Aldrich, St. Louis, Mo.), leupeptin (Sigma-Aldrich, St. Louis, Mo.), GM6001 InSolution (EMD Millipore, Darmstadt, Germany), or E-64 (Thermo Scientific, Waltham, Mass.). Other cultures were treated with cytokines: recombinant human interferon-γ (rhIFNγ, […]), recombinant human tumor necrosis factor-α (rhTNFα, 10 ng/ml), or recombinant human interleukin-17 (rhIL-17,10 ng/ml) (Peprotech, Rocky Hill, N.J.) for 0, 0.5, 1, 2, 6, 8, 12, 24, 48, or 72 hours in serum-free medium.
mRNA was isolated from FLS (3 wells of a 6-well plate) using the RNAeasy Kit and Qiacube (Qiagen, Venlo, Netherlands). cDNA was prepared using a High Capacity cDNA Kit (Life Technologies, Carlsbad, Calif.). Quantitative reverse transcription polymerase chain reaction (qRT-PCR) was done using TaqMan Gene Expression Assays on a 7500 Real Time PCR System (Life Technologies, Carlsbad, Calif.).
CD13 is present at much higher levels in RA synovial fluid compared to OA. Cultured RA and OA FLS, however, expressed similar amounts of CD13 (10). One possible explanation for this observation is that the pro-inflammatory cytokines in the RA joint could contribute to upregulation of CD13 production by FLS. Cultured RA FLS were treated with IFNγ, TNFα, or IL-17 over a time course from 0 to 72 hours. […] Data shown are a ratio of cytokine-treated FLS CD13 mRNA to untreated FLS CD13 mRNA at the same time point.

[5] = system: RA FLS; assay: FLS growth assay (Essen IncuCyte, percent confluence); conditions: antibodies 25 or 50 ng/ml, actinonin 10 μM, bestatin 50 μM, primarily between 24 hours and 120 hours
Procedure: (§1) FIG. 5. […] FLS were seeded on 96-well plates overnight. An Essen Incucyte system was used for both growth (A) and migration (B) assays. Growth was calculated as the difference in percent confluence from time 0. Migration was measured in a scratch-wound assay using relative wound density. All data are expressed as a ratio to untreated FLS of the same cell line. mean±SEM n≥4 (*p≤0.05).
(§2) RA FLS were seeded on Essen Image Lock 96-well plates (Essen Bioscience, Ann Arbor, Mich.) overnight at either 3,000 cells/well for growth or 30,000 cells/well for migration. For growth, the 20% FBS CMRL media was removed and cells were washed 1× with PBS. 100 μl of medium alone (control) or medium containing anti-CD3 (25 or 50 ng/ml, OKT3, used as a non-reactive isotype control antibody in this experiment), anti-CD13 1D7 or WM15 (Biolegend, San Diego, Calif.) (25 or 50 ng/ml), or CD13 chemical inhibitors actinonin (Sigma-Aldrich, St. Louis, Mo.) or bestatin (Sigma-Aldrich, St. Louis, Mo.) (10 μM and 50 μM, respectively) was added to the wells. Images and confluence data were collected using an Essen IncuCyte (Essen Bioscience, Ann Arbor, Mich.). For the scratch-wound migration assay, wounds were made via the Essen scratch-wound tool in the seeded 96-well plate. Plates were then washed 2× with PBS and medium was added similar to the growth plates. Data were collected and the confluence or relative wound density calculated by the Essen IncuCyte.

[6] = system: RA FLS; assay: FLS scratch-wound migration assay (relative wound density); conditions: antibodies 25 or 50 ng/ml; actinonin 10 μM, bestatin 50 μM; primarily from 36 hours to 72 hours
Procedure: as §1
as §2, with “Plates were then washed 2× with PBS and medium was added similar to the growth plates.” left out

Molecule: tissue inhibitor of metalloproteinase 1 [TIMP-1]
- CD13 secretion in conditioned media (OD, ELISA) [1]: decrease was not observed

Molecule: tissue inhibitor of metalloproteinase 2 [TIMP-2]
- CD13 secretion in conditioned media (OD, ELISA) [1]: significant decrease

Molecule: CNC(=O)[C@H](Cc1c[nH]c2ccccc12)NC(=O)[C@@H](CC(=O)NO)CC(C)C [GM6001]
- CD13 in FLS cell lysates (change, in words) ([2]; FLS cultures, serum-free media with protease inhibitor): No significant difference
- reduction of CD13 protein found in the supernatant ([2]; FLS cultures, serum-free media, GM6001 25 μM, CD13 ELISA): 93.62±4.78%
- block of CD13 release from FLS (in words) ([2]; protease inhibitors at established working concentrations): found to block CD13 release
- CD13 in lysates of GM6001-treated cells [3]: significantly increased
- release of CD13 into the culture supernatant (in words) ([3]; serum-free media with 1 ng/ml IL-1 and 10 ng/ml TNFα): prevented the release of CD13

Molecule: CC(=O)N[C@@H](CC(C)C)C(=O)N[C@@H](CC(C)C)C(=O)N[C@H](C=O)CCCNC(=N)N [Leupeptin, leupeptin]
- increase in CD13 released ([2]; FLS cultures, serum-free media, Leupeptin 10 μM, supernatant): 48.40±14.29%

Molecule: recombinant human tumor necrosis factor-α [TNFα]
- CD13 mRNA in RA FLS, ratio to untreated FLS (in words) [4]: upregulated
- time of peak CD13 mRNA expression [4]: around 48 hours

Molecule: recombinant human interferon-γ [IFNγ]
- CD13 mRNA in RA FLS, ratio to untreated FLS (in words) [4]: upregulated
- time of peak CD13 mRNA expression [4]: around 48 hours

Molecule: CCCCC[C@H](CC(=O)NO)C(=O)N[C@H](C(=O)N1CCC[C@H]1CO)C(C)C [actinonin]
- RA FLS cell growth (change in confluence, ratio to untreated FLS) [5]: strongest inhibitor of cell proliferation
- RA FLS cell growth (change in confluence, ratio to untreated FLS) ([5]; listed as Actinonin): significant slowing of cell growth
- RA FLS migration in wound healing assay (relative wound density, ratio to untreated) [6]: significant decrease

Molecule: recombinant human interleukin-17 [IL-17]
- CD13 mRNA in RA FLS, ratio to untreated FLS (in words) [4]: upregulated
- time of peak CD13 mRNA expression [4]: around 48 hours

Molecule: CC(C)C[C@H](NC(=O)[C@@H](O)[C@H](N)Cc1ccccc1)C(=O)O [Bestatin, bestatin]
- RA FLS cell growth (change in confluence, ratio to untreated FLS) [5]: significant slowing of cell growth
- RA FLS migration in wound healing assay (relative wound density, ratio to untreated) [6]: not found to inhibit FLS migration

Molecule: aprotinin
- increase in CD13 expression in FLS cell lysates ([2]; Aprotinin 100 nM): 22.17±6.18%
